In EPA's ToxValDB 9.5 (doi:10.2903/j.efsa.2008.148r):
Converted amounts (≈) assume the structure as drawn.

Experiments:
Coturnix japonica = conditions: acute; oral; mortality
Daphnia magna = conditions: chronic/long-term; duration: 21 days; reproduction
Canidae = conditions: subchronic; duration: 90 days; oral; Dog Other; clinical signs
Apis mellifera = conditions: acute; duration: 48 hours; oral; unspecified; mortality
Avena sativa = conditions: acute; duration: 14 days; growth
Folsomia candida = conditions: chronic/long-term; duration: 28 days; reproduction
Lepidium sativum = conditions: acute; duration: 14 days; growth
Macromiidae = conditions: acute; duration: 72 hours; biomass
Oryctolagus sp. = conditions: reproduction developmental; body weight
Mus musculus = conditions: acute; oral; mortality
Poecilus cupreus = test: LR50; higher = less toxic; conditions: not reported; mortality

In the case of `O=[N+]([O-])/N=C1\NCCN1Cc1ccc(Cl)nc1` [Imidacloprid], the LC50 (Oncorhynchus mykiss; acute, duration: 96 hours, mortality) is reported as 211 µg/mL (≈ 825 µM), the NOEC (Oncorhynchus mykiss; chronic/long-term, duration: 91 days, time to swim up) is reported as 9.02 mg/L and the LD50 (Coturnix japonica) is reported as 31 mg/kg-day. The NOEC (Daphnia magna) was 1.8 mg/L, the NOAEL (Canidae) was 7.8 mg/kg-day and the LD50 (Apis mellifera) was 0.0037 µg/piece. It also gave an NOAEL (Colinus virginianus; reproduction developmental) of 9.3 mg/kg-day, an NOEL (Colinus virginianus; short-term, oral, diet) of 29.4 mg/kg-day and an NOEC (Avena sativa) of at least 100 mg/kg. The NOEC (Folsomia candida) was 1.25 mg/kg, the NOEC (Lepidium sativum) was 10 mg/kg and the NOEC (Macromiidae) was 10 mg/L. For the same molecule, the NOAEL (Oryctolagus sp.) was 8 mg/kg-day, the LC50 (Tagia sp.; acute, duration: 14 days, mortality) was 10.7 mg/kg and the NOEC (Tagia sp.; chronic/long-term, duration: 56 days, reproduction) was over 0.178 mg/kg. For the same molecule, the NOAEL (Rattus norvegicus; chronic) was 17 mg/kg-day, the NOAEL (Rattus norvegicus; chronic, duration: 2 years, histopathology: nonneoplastic) was 5.7 mg/kg-day and the NOAEL (Rattus norvegicus; subchronic, duration: 90 days, oral, histopathology: nonneoplastic) was 9.3 mg/kg-day. The LD50 (Mus musculus) was 131 mg/kg-day and the LR50 (Poecilus cupreus) was 0.136 mg/kg.
